This note sets out measurements from ChEMBL document CHEMBL6071166, “Maduraflavacins A-E, Unusual Phenyl Polyene Metabolites Produced by a Rare Marine-Derived Actinomadura sp” (2024).

Molecules are shown by their SMILES. The source made the active and inactive calls. The rule behind the calls is not given here.

Test [1] deals with Staphylococcus aureus. The experiment in a line: Antibacterial activity against Staphylococcus aureus Sau 16339 assessed as inhibition zone at 0.5 mg/ml by agar diffusion assay. Type of test: functional. As to conditions: read-out: IZ.
Test [2] has as its system Micrococcus luteus. Put plainly: Antibacterial activity against Micrococcus luteus assessed as inhibition zone at 0.5 mg/ml by agar diffusion assay. The format is functional. As to conditions: read-out: IZ.
In test [3] the test system is Staphylococcus aureus. The experiment in a line: Antibacterial activity against Staphylococcus aureus Sau 16339 at 0.005 to 1 mg/ml by agar diffusion assay. The format is functional, organism-based. As to conditions: dose 0.005-1 mg/ml.
Test [4] relates to Micrococcus luteus. Put plainly: Antibacterial activity against Micrococcus luteus at 0.005 to 1 mg/ml by agar diffusion assay. As to conditions: dose 0.005-1 mg/ml. The format is functional, organism-based.

As for `CN(C)[C@@H]1C(O)=C(C(N)=O)C(=O)[C@@]2(O)C(O)=C3C(=O)c4c(O)cccc4[C@@](C)(O)[C@H]3C[C@@H]12` [TETRACYCLINE], the figures for the zone of inhibition at 500 µg/mL in the test with Staphylococcus aureus [1] and in the test on Micrococcus luteus [2] were 12 mm and 15 mm, respectively.
Take `COC(=O)/C=C/C=C/C=C/C(C)=C/C=C/c1ccccc1`: the result with Staphylococcus aureus [3] and in the test with Micrococcus luteus [4] was inactive.
As for `CC(/C=C/C(=O)N[C@@H]1O[C@H](CO)[C@@H](O)[C@H](O[C@@H]2O[C@H](CO)[C@@H](O)[C@H](O[C@@H]3O[C@H](CO[C@@H]4O[C@H](CO)[C@@H](O)[C@H](O)[C@H]4O)[C@@H](O)[C@H](O)[C@H]3O)[C@H]2O)[C@H]1O)=C\C=C\c1ccccc1`, the outcome in the test with Staphylococcus aureus [3] and in the test with Micrococcus luteus [4] was inactive.
As to `COC(=O)/C=C/C(C)=C/C=C/C(C)=C/C=C/c1ccccc1`, the result with Staphylococcus aureus [3] and with Micrococcus luteus [4] was inactive.
Consider `CC(/C=C/C=C/C=C/C(=O)N[C@@H]1O[C@H](CO)[C@@H](O)[C@H](O[C@@H]2O[C@H](CO)[C@@H](O)[C@H](O[C@@H]3O[C@H](CO[C@@H]4O[C@H](CO)[C@@H](O)[C@H](O)[C@H]4O)[C@@H](O)[C@H](O)[C@H]3O)[C@H]2O)[C@H]1O)=C\C=C\c1ccccc1`, for which the zone of inhibition at 500 µg/mL in the test with Micrococcus luteus [2] amounted to 3 mm. Further, the result in the test on Staphylococcus aureus [3] was inactive.
Consider `CC(/C=C/C=C(C)/C=C/C(=O)N[C@@H]1O[C@H](CO)[C@@H](O)[C@H](O[C@@H]2O[C@H](CO)[C@@H](O)[C@H](O[C@@H]3O[C@H](CO[C@@H]4O[C@H](CO)[C@@H](O)[C@H](O)[C@H]4O)[C@@H](O)[C@H](O)[C@H]3O)[C@H]2O)[C@H]1O)=C\C=C\c1ccccc1`, for which the zone of inhibition at 500 µg/mL in the test on Staphylococcus aureus [1] is 4 mm. Besides, the outcome with Micrococcus luteus [4] was inactive.
